Experiments:
PBMCs [1] = experiment: Cell viability by trypan blue staining after 24 hours; assay type: cell-based, human; set-up: key to Viability (dose-response): % of activated DMSO control viability; details: for Viability (dose-response): 1 participant per drug, in % (unit assumed)
Protocol: Figure 1 Screening of candidate LPAs by measuring the change in multiply spliced HIV transcripts after activation. Each drug was tested in PBMCs from 2 ART-suppressed study participants (denoted in the legend by varying symbol shapes). PBMCs were aliquoted into wells at 6 × 10^6 cells/well. After activation, the cells were cultured with antiretrovirals in the presence of individual drugs in DMSO or DMSO alone as control. All conditions were tested in the presence of CD3/28 T cell–activating beads, except for the unactivated DMSO condition. (A) After 24 hours, the viability was measured by trypan blue staining and then normalized to the levels of the activated DMSO (% of activated DMSO). Bars indicate medians. (B) Total cellular RNA was extracted, and the levels of multiply spliced HIV transcripts (TatRev) were measured by RT-ddPCR, normalized to 1 μg of total cellular RNA, and expressed as a percentage of the activated DMSO control (% of activated DMSO). RT-dd, reverse transcription digital droplet; vRNA, viral RNA; HAT, histone acetyltransferase.
For quantification of cell-associated HIV transcripts, PBMCs were harvested either after 24 hours or after 6 days. The cell viabilities were measured by trypan blue staining; then the cells were pelleted by centrifuging at 300g for 6 minutes and stored at –80°C. For quantification of virion-associated HIV RNA, cell culture supernatant was collected from 6 × 10^6 PBMCs that were treated and activated for 6 days as described above. Residual cells and cellular debris were subsequently removed from the supernatant by differential centrifugation (300g for 6 minutes, then 20,000g for 10 minutes), and the supernatant was stored at –80°C.

PBMCs [2] = experiment: Total number of live cells (proliferation) by trypan blue staining at day 6; assay type: cell-based, human; details: for Total live cell numbers (proliferation) compared with activated DMSO (in words) / Total number of live cells (Fig 6A): day 6; for Total live cell numbers (proliferation) compared with activated DMSO (in words): Figure 6A; for Fig 6B: total live cells relative to DMSO+CD3/28: DMSO+CD3/28 = 100
Protocol: Some of our candidate LPAs can block the effects of T cell activation, which could affect T cell proliferation. Therefore, we evaluated the extent to which variations in the level of infected cells may contribute to reductions in different HIV RNA transcripts. We measured the total number of viable cells (as a measure of proliferation) and the conserved U3-U5 LTR HIV DNA region (as a measure of total infection frequency) at day 6.
(A) After 6 days, the total number of live cells was measured by trypan blue staining and then normalized to the levels of the activated DMSO (% of activated DMSO). All conditions were tested in the presence of CD3^+/CD28^+ T cell–activating beads, except for the unactivated DMSO condition. Bars indicate medians, and different colors indicate individual study participants. Comparisons were performed using Wilcoxon’s signed-rank test. (B) Total cellular DNA was extracted, and the levels of U3-U5 HIV DNA were measured to quantify infection frequency at 6 days. HIV DNA levels were normalized to copies per 10^6 cells using the input of cellular DNA (assuming 1 μg of total DNA corresponds to 160,000 cells) and then normalized to the activated DMSO control (% of activated DMSO). Bars indicate medians, and different colors indicate individual study participants.

| Compound | Viability (dose-response) (PBMCs [1]; dose 1 nM) | Viability (dose-response) (PBMCs [1]; dose 8 nM) | Viability (Fig 1A) (PBMCs [1]; study participant 150a) | Viability (Fig 1A) (PBMCs [1]; study participant 152) | Total live cell numbers (proliferation) compared with activated DMSO (in words) (PBMCs [2]) | Fig 6B: total live cells relative to DMSO+CD3/28 (PBMCs [2]; participant 2027) | Fig 6B: total live cells relative to DMSO+CD3/28 (PBMCs [2]; participant 2147a) | Fig 6B: total live cells relative to DMSO+CD3/28 (PBMCs [2]; participant 2147b) | Fig 6B: total live cells relative to DMSO+CD3/28 (PBMCs [2]; participant 2256) | Fig 6B: total live cells relative to DMSO+CD3/28 (PBMCs [2]; participant 2461) | Total number of live cells (Fig 6A) (PBMCs [2]; study participant 2027) | Total number of live cells (Fig 6A) (PBMCs [2]; study participant 2147a) | Total number of live cells (Fig 6A) (PBMCs [2]; study participant 2147b) | Total number of live cells (Fig 6A) (PBMCs [2]; study participant 2256) | Total number of live cells (Fig 6A) (PBMCs [2]; study participant 2461) | Viability (dose-response) (PBMCs [1]; dose 4 nM) | other results |
| --- | --- | --- | --- | --- | --- | --- | --- | --- | --- | --- | --- | --- | --- | --- | --- | --- | --- |
| CC(=O)N[C@@H]1CCC[C@H](C(=O)Nc2cc(-c3cnn4c3CC(C)(C)C4)c(Cl)cn2)C1 [AZD4573] | 74.75 | 63.616 | 106.07 % of activated DMSO | 97.45 % of activated DMSO |  |  |  |  |  |  |  |  |  |  |  |  | Viability (dose-response) (PBMCs [1]; dose 20 nM): 68.369 |
| CNc1ccc([N+](=O)[O-])c(Nc2ccc3[nH]ncc3c2)n1 [KRIBB11] |  |  | 102.97 % of activated DMSO | 101.83 % of activated DMSO | did not change proliferation rates | 80 | 78.71 | 84.85 | 100 | 133.29 | 77.91 % of activated DMSO | 131.05 % of activated DMSO | 144.41 % of activated DMSO | 80.69 % of activated DMSO | 93.23 % of activated DMSO |  | Fig 6B: total live cells relative to DMSO+CD3/28 (PBMCs [2]; participant 2747): 114.29; Total number of live cells (Fig 6A) (PBMCs [2]; study participant 150a): 109.33 % of activated DMSO; Total number of live cells (Fig 6A) (PBMCs [2]; study participant 156): 86.05 % of activated DMSO; Total number of live cells (Fig 6A) (PBMCs [2]; study participant 163): 93.17 % of activated DMSO; Total number of live cells (Fig 6A) (PBMCs [2]; study participant 2747): 107.08 % of activated DMSO |
| CN1CC[C@H](c2c(O)cc(O)c3c(=O)cc(-c4ccccc4Cl)oc23)[C@H](O)C1 [alvocidib] |  |  | 98.54 % of activated DMSO |  |  |  |  |  |  |  |  |  |  |  |  | 81 | Viability (dose-response) (PBMCs [1]; dose 10 nM): 85; Viability (dose-response) (PBMCs [1]; dose 40 nM): 95.181; Viability (dose-response) (PBMCs [1]; dose 100 nM): 77 |
| CCc1cnn2c(NCc3ccc[n+]([O-])c3)cc(N3CCCC[C@H]3CCO)nc12 [dinaciclib] | 89.474 | 89.726 | 96.36 % of activated DMSO | 99.43 % of activated DMSO |  |  |  |  |  |  |  |  |  |  |  | 89.815 |  |
| CO[C@H]([C@@H](C)[C@H]1O[C@]1(C)C[C@H](C)/C=C/C=C(\C)[C@H]1O[C@@H](CC(=O)O)CC[C@@H]1C)[C@@H](C)O [herboxidiene] |  |  | 99.57 % of activated DMSO |  | did not change proliferation rates | 98.18 | 103.96 | 121.98 | 89.47 | 80.23 | 34.68 % of activated DMSO | 115.89 % of activated DMSO | 188.02 % of activated DMSO | 87.5 % of activated DMSO | 32.33 % of activated DMSO |  | Fig 6B: total live cells relative to DMSO+CD3/28 (PBMCs [2]; participant 150b): 68; Fig 6B: total live cells relative to DMSO+CD3/28 (PBMCs [2]; participant 1379): 22.5; Fig 6B: total live cells relative to DMSO+CD3/28 (PBMCs [2]; participant 2161): 132.2; Fig 6B: total live cells relative to DMSO+CD3/28 (PBMCs [2]; participant 5557): 117.65; Total number of live cells (Fig 6A) (PBMCs [2]; study participant 1379): 82.06 % of activated DMSO; Total number of live cells (Fig 6A) (PBMCs [2]; study participant 2161): 72.75 % of activated DMSO; Total number of live cells (Fig 6A) (PBMCs [2]; study participant 5557): 99.29 % of activated DMSO; Viability (Fig 1A) (PBMCs [1]; study participant 2147b): 98.97 % of activated DMSO |
| COc1ccc(-c2cc(=O)c3c(O)cc(O)c(-c4cc(-c5cc(=O)c6c(O)cc(O)cc6o5)ccc4OC)c3o2)cc1 [isoginkgetin] |  |  | 88.97 % of activated DMSO | 84.74 % of activated DMSO | significantly lower |  |  |  |  |  |  |  |  |  |  |  | Cell viability (in words) (PBMCs [1]; initial screening concentrations, Figure 1A): impact on cell viability |

Source: article PMC11466185, “Mechanisms and efficacy of small molecule latency-promoting agents to inhibit HIV reactivation ex vivo” (JCI Insight, 2024)
